One assay deals with KDR kinase (Homo sapiens, UniProt P35968). The experiment in a line: KDR AlphaScreen assay. To be noted: KDR IC50 (μM). (Bead proximity is the source of the signal in Alpha formats.)
Another assay has as its target Pim3 kinase (Homo sapiens, UniProt Q86V86). As to the kind of experiment: Pim3 ATP depletion assay. Format: biochemical.
A further assay deals with Pim2 kinase (Homo sapiens, UniProt Q9P1W9). As to the kind of experiment: Pim2 ATP depletion assay.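 Note: Luciferase-based luminescent readout of ATP remaining after PIM2 phosphorylates a BAD peptide, final 5 nM enzyme, 4 µM ATP, 10 µM peptide, 2.5% DMSO, run to roughly half ATP consumption.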 Format: biochemical.
The next assay has as its target Pim1 kinase (Homo sapiens, UniProt P11309). The experiment in a line: Pim1 ATP depletion assay.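 Note: Luciferase-luciferin luminescence readout of residual ATP after PIM1 transfers phosphate to a peptide substrate, 40 µM ATP added, reaction run to roughly half ATP consumption.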 Format: biochemical. As to conditions: Pim1 ATP depletion assay.
The target in assay [1] is T1, human full length PKCE enzyme (Homo sapiens, UniProt Q02156).
T1 construct: human full length PKCE enzyme purchased from InVitrogen; purchased InVitrogen
T1 sequence (Q02156 1-737): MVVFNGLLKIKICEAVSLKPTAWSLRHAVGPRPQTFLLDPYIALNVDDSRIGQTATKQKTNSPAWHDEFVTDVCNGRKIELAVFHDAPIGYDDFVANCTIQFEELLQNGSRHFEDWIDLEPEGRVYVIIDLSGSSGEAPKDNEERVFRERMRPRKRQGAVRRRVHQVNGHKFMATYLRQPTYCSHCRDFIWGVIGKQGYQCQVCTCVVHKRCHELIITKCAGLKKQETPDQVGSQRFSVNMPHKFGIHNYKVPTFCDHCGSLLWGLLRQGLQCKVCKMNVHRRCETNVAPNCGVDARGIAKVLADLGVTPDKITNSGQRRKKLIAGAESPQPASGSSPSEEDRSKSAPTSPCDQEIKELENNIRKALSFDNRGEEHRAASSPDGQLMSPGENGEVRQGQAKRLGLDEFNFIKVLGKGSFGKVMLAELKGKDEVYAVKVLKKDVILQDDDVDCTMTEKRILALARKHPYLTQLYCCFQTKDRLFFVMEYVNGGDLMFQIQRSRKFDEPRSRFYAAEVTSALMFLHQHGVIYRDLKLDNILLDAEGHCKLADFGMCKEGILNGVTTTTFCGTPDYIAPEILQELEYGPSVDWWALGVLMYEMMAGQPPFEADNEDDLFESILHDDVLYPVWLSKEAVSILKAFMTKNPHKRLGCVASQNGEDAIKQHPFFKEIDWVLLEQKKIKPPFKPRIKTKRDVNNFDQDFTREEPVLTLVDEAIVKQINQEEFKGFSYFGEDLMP
As to the kind of experiment: In vitro PKCE assay. In kind it is biochemical. As to conditions: 10 nM enzyme, 40 uM peptide substrate, 20 uM ATP, KinaseGlo Plus readout; read-out: PKCε IC50. Background: Kinase-Glo measures the ATP left after a reaction by luminescence.

Read-outs that look alike come from different tables or passages of the source. Where only a bound is given, the exact number is not on record here.

Chain of KDR kinase (P35968 20-1356): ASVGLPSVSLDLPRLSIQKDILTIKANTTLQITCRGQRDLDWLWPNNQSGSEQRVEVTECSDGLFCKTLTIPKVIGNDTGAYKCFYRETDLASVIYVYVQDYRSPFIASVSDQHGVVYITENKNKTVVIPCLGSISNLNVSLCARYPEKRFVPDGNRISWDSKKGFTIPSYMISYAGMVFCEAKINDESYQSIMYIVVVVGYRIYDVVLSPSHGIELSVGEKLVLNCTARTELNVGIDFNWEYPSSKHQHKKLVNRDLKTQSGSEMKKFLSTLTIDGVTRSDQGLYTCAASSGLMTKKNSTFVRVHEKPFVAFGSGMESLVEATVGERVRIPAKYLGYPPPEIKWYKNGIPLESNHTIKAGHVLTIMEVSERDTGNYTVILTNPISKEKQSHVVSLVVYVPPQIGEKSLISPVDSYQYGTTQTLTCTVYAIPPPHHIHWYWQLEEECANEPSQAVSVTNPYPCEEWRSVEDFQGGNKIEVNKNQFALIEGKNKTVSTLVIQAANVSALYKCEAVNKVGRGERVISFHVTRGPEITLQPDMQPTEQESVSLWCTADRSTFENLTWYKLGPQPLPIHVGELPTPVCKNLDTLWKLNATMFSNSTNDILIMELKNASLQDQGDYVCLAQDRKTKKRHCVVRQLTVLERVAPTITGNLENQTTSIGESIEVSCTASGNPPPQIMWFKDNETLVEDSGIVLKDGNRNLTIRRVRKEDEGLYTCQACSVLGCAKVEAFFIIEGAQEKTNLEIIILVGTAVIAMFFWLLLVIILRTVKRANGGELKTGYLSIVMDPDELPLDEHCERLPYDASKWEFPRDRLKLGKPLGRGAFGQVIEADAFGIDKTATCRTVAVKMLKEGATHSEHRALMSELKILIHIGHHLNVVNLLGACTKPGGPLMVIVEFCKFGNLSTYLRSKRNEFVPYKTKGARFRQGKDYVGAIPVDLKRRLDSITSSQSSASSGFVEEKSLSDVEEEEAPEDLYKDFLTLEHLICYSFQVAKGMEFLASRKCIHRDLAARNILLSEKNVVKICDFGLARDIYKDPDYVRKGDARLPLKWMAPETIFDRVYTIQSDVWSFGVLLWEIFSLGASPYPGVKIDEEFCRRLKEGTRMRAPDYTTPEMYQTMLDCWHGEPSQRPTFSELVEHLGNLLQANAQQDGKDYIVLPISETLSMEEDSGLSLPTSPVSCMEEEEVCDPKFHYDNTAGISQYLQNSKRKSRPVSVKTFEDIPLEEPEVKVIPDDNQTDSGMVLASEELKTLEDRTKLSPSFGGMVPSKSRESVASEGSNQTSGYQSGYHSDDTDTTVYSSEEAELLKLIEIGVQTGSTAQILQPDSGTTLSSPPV
Chain of Pim1 kinase (P11309 whole entry): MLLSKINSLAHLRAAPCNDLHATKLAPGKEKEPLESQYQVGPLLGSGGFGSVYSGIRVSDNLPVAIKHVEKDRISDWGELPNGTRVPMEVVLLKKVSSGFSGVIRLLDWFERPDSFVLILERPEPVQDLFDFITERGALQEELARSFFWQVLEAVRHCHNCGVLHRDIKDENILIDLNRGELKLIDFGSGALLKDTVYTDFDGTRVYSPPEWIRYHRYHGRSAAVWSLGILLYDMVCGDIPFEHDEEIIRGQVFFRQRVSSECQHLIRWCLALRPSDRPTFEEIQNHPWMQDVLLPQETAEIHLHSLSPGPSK
Chain of Pim2 kinase (Q9P1W9 whole entry): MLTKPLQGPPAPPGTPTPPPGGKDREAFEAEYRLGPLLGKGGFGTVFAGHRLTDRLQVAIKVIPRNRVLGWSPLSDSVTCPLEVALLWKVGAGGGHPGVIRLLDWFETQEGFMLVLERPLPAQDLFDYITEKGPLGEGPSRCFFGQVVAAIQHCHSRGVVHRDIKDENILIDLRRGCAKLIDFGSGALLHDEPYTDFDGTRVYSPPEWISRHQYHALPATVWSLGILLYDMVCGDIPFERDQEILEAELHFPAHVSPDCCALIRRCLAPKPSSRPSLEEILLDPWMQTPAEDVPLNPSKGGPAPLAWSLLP

The IC50 is the midpoint of a concentration-inhibition curve. With `CC(C)NC(=O)c1ccc(F)c(-c2ccc(N)c(C(=O)Nc3cnccc3N3CCCC(O)(C(F)(F)F)C3)n2)c1` (stereo not shown) [Example 163, 3-Amino-6-(2-fluoro-5-isopropylcarbamoyl-phenyl)-pyridine-2-carboxylic acid (3-hydroxy-3-trifluoromethyl-3,4,5,6-tetrahydro-2H-[1,4′]bi-pyridinyl-3′-yl)-amide], the IC50 against KDR kinase is 10 to 25 µM; at Pim3 kinase (read-out: IC50 (μM) PIM3) it was below 1 µM; on Pim2 kinase (read-out: IC50 (μM) PIM2), below 1 µM; on Pim1 kinase (read-out: IC50 (μM) PIM1), below 1 µM.
For the compound `Nc1ccc(-c2ccccc2F)nc1C(=O)Nc1cnccc1N1CCCC(O)(C(F)(F)F)C1` (stereo not shown) [Example 164, 3-Amino-6-(2-fluoro-phenyl)-pyridine-2-carboxylic acid (3-hydroxy-3-trifluoromethyl-3,4,5,6-tetrahydro-2H-[1,4′]bi-pyridinyl-3′-yl)-amide], the IC50 against KDR kinase is 10 to 25 µM; at Pim3 kinase (read-out: IC50 (μM) PIM3), below 1 µM; at Pim2 kinase (read-out: IC50 (μM) PIM2), below 1 µM; at Pim1 kinase (read-out: IC50 (μM) PIM1), below 1 µM.
As to `Nc1cnc(-c2c(F)cccc2F)nc1C(=O)Nc1cnccc1N1CCCC(O)(C(F)(F)F)C1` (stereo not shown) [Example 165, 5-Amino-2-(2,6-difluoro-phenyl)-pyrimidine-4-carboxylic acid (3-hydroxy-3-trifluoromethyl-3,4,5,6-tetra-hydro-2H-[1,4′]bipyridinyl-3′-yl)-amide], the IC50 against KDR kinase is 10 to 25 µM; at Pim3 kinase (read-out: IC50 (μM) PIM3) it was below 1 µM; on Pim2 kinase (read-out: IC50 (μM) PIM2) it was below 1 µM; on Pim1 kinase (read-out: IC50 (μM) PIM1), below 1 µM.
For the compound `Nc1cnc(-c2ccccc2F)nc1C(=O)Nc1cnccc1N1CCCC(O)(C(F)(F)F)C1` (stereo not shown) [Example 166, 5-Amino-2-(2-fluoro-phenyl)-pyrimidine-4-carboxylic acid (3-hydroxy-3-trifluoromethyl-3,4,5,6-tetrahydro-2H-[1,4′]bi-pyridinyl-3′-yl)-amide], the IC50 is 10 to 25 µM on KDR kinase, below 1 µM on Pim3 kinase (read-out: IC50 (μM) PIM3), below 1 µM at Pim2 kinase (read-out: IC50 (μM) PIM2) and below 1 µM at Pim1 kinase (read-out: IC50 (μM) PIM1).
As for `NCC1CCCN(c2cnc(=O)[nH]c2NC(=O)c2nc(Br)cnc2N)C1` (stereo not shown) [Example 240, 3-amino-N-{5-[3-(aminomethyl)-piperidin-1-yl]-2-oxo-2,3-dihydropyrimidin-4-yl}-6-bromopyrazine-2-carboxamide], the IC50 in assay [1] was below 1000 nM; on Pim3 kinase (read-out: IC50 (μM) PIM3) it was below 1 µM; at Pim2 kinase (read-out: IC50 (μM) PIM2) it was below 1 µM; on Pim1 kinase (read-out: IC50 (μM) PIM1), below 1 µM.
Turning to `NCCC(=O)N1CCN(c2cnc(=O)[nH]c2NC(=O)c2nc(Br)cnc2N)CC1` [Example 241, 3-amino-N-{5-[4-(3-amino-propanoyl)piperazin-1-yl]-2-oxo-2,3-dihydropyrimidin-4-yl}-6-bromopyrazine-2-carboxamide], the IC50 is 1000 to 10000 nM in assay [1], below 1 µM on Pim3 kinase (read-out: IC50 (μM) PIM3), below 1 µM on Pim2 kinase (read-out: IC50 (μM) PIM2) and below 1 µM on Pim1 kinase (read-out: IC50 (μM) PIM1).
For `Nc1cccnc1C(=O)Nc1[nH]c(=O)ncc1N1CCCC(N)C1` (stereo not shown) [Example 242, 3-amino-N-[5-(3-aminopiperidin-1-yl)-2-oxo-2,3-dihydro-pyrimidin-4-yl]pyridine-2-carboxamide], the IC50 in assay [1] is above 25000 nM; on Pim3 kinase (read-out: IC50 (μM) PIM3), below 1 µM; on Pim2 kinase (read-out: IC50 (μM) PIM2), below 1 µM; on Pim1 kinase (read-out: IC50 (μM) PIM1), below 1 µM.
As to `N[C@H]1CCCN(c2ccncc2NC(=O)c2ccnc(-c3c(F)cccc3F)n2)C1` [Example 249, N-{4-[(3S)-3-aminopiperidin-1-yl]pyridin-3-yl}-2-(2,6-difluorophenyl)pyrimidine-4-carboxamide N-{4-[(3S)-3-aminopiperidin-1-yl]pyridin-3-yl}-2-(2,6-difluorophenyl)-pyrimidine-4-carboxamide], the IC50 on KDR kinase was 10 to 25 µM; on Pim3 kinase (read-out: IC50 (μM) PIM3), below 1 µM; on Pim2 kinase (read-out: IC50 (μM) PIM2), below 1 µM; at Pim1 kinase (read-out: IC50 (μM) PIM1), below 1 µM.
Turning to `CC1(N)CCCN(c2ccncc2NC(=O)c2nc(-c3ccccc3)ncc2N)C1` (stereo not shown) [Example 261, 5-Amino-2-phenyl-pyrimidine-4-carboxylic acid (3-amino-3-methyl-3,4,5,6-tetrahydro-2H-[1,4′]bipyridinyl-3′-yl)-amide], the IC50 against KDR kinase is 1 to 10 µM; on Pim3 kinase (read-out: IC50 (μM) PIM3), below 1 µM; on Pim2 kinase (read-out: IC50 (μM) PIM2), below 1 µM; at Pim1 kinase (read-out: IC50 (μM) PIM1), below 1 µM.
On to `Nc1cnc(C(=O)Nc2cnccc2N2CCCCC2)c(N)n1` [Example 312, 3,5-diamino-N-(4-(piperidin-1-yl)pyridin-3-yl)pyrazine-2-carboxamide], for which the IC50 in assay [1] was 10000 to 25000 nM; on Pim3 kinase (read-out: IC50 (μM) PIM3), below 1 µM; at Pim2 kinase (read-out: IC50 (μM) PIM2), 1 to 10 µM; on Pim1 kinase (read-out: IC50 (μM) PIM1), below 1 µM.
Consider `Cc1ccccc1-c1cnc(N)c(C(=O)Nc2cnccc2N2CCCC(N)C2)n1` (stereo not shown) [Example 351, 3-amino-6-o-tolyl-pyrazine-2-carboxylic acid (3-amino-3,4,5,6-tetrahydro-2H-[1,4′]bi-pyridinyl-3′-yl)-amide], for which the IC50 is below 1000 nM in assay [1], below 1 µM at Pim3 kinase (read-out: IC50 (μM) PIM3), below 1 µM at Pim2 kinase (read-out: IC50 (μM) PIM2) and below 1 µM at Pim1 kinase (read-out: IC50 (μM) PIM1).
On to `Cc1cnc(N)c(C(=O)Nc2cnccc2N2CCCC(N)C2)n1` (stereo not shown) [Example 371, 3-amino-6-methyl-pyrazine-2-carboxylic acid (3-amino-3,4,5,6-tetrahydro-2H-[1,4′]bi-pyridinyl-3′-yl)-amide], for which the IC50 in assay [1] was 1000 to 10000 nM; on Pim3 kinase (read-out: IC50 (μM) PIM3), below 1 µM; on Pim2 kinase (read-out: IC50 (μM) PIM2) it was below 1 µM; at Pim1 kinase (read-out: IC50 (μM) PIM1), below 1 µM.
`N#Cc1ccccc1-c1cnc(N)c(C(=O)Nc2[nH]c(=O)ncc2N2CCCC(N)C2)n1` (stereo not shown) [Example 403, 3-amino-6-(2-cyano-phenyl)-pyrazine-2-carboxylic acid [5-(3-amino-piperidin-1-yl)-2-oxo-2,3-dihydro-pyrimidin-4-yl]-amide]: the IC50 in assay [1] was below 1000 nM; at Pim3 kinase (read-out: IC50 (μM) PIM3) it was below 1 µM; at Pim2 kinase (read-out: IC50 (μM) PIM2), below 1 µM; at Pim1 kinase (read-out: IC50 (μM) PIM1), below 1 µM.
For the compound `Nc1ncc(-c2ccccc2C(F)(F)F)nc1C(=O)Nc1[nH]c(=O)ncc1N1CCCC(N)C1` (stereo not shown) [Example 404, 3-amino-6-(2-trifluoromethyl-phenyl)-pyrazine-2-carboxylic acid [5-(3-amino-piperidin-1-yl)-2-oxo-2,3-dihydro-pyrimidin-4-yl]-amide], the IC50 is 1000 to 10000 nM in assay [1], below 1 µM at Pim3 kinase (read-out: IC50 (μM) PIM3), below 1 µM at Pim2 kinase (read-out: IC50 (μM) PIM2) and below 1 µM at Pim1 kinase (read-out: IC50 (μM) PIM1).
On to `Nc1ncc(-c2ccccc2OC(F)(F)F)nc1C(=O)Nc1[nH]c(=O)ncc1N1CCCC(N)C1` (stereo not shown) [Example 405, 3-amino-6-(2-trifluoro-methoxy-phenyl)-pyrazine-2-carboxylic acid [5-(3-amino-piperidin-1-yl)-2-oxo-2,3-dihydro-pyrimidin-4-yl]-amide], for which the IC50 in assay [1] was 10000 to 25000 nM; at Pim3 kinase (read-out: IC50 (μM) PIM3) it was below 1 µM; at Pim2 kinase (read-out: IC50 (μM) PIM2), below 1 µM; at Pim1 kinase (read-out: IC50 (μM) PIM1), below 1 µM.
As for `Nc1ncc(-c2ccccc2C(F)(F)F)nc1C(=O)Nc1[nH]c(=O)ncc1N1CCCCC1` [Example 593, 3-amino-6-(2-trifluoromethyl-phenyl)-pyrazine-2-carboxylic acid (2-oxo-5-piperidin-1-yl-2,3-dihydro-pyrimidin-4-yl)-amide], the IC50 in assay [1] was above 25000 nM; on Pim3 kinase (read-out: PIM3 IC50), below 1 µM; on Pim2 kinase (read-out: PIM2 IC50) it was below 1 µM; on Pim1 kinase (read-out: PIM1 IC50), below 1 µM.
In the case of `COc1ccccc1-c1cnc(N)c(C(=O)Nc2[nH]c(=O)ncc2N2CCCCC2)n1` [Example 594, 3-amino-6-(2-methoxy-phenyl)-pyrazine-2-carboxylic acid (2-oxo-5-piperidin-1-yl-2,3-dihydro-pyrimidin-4-yl)-amide], the IC50 in assay [1] is above 25000 nM; at Pim3 kinase (read-out: PIM3 IC50), below 1 µM; on Pim2 kinase (read-out: PIM2 IC50), below 1 µM; at Pim1 kinase (read-out: PIM1 IC50), below 1 µM.
As for `Nc1ncc(-c2ccccc2Cl)nc1C(=O)Nc1[nH]c(=O)ncc1N1CCCCC1` [Example 595, 3-amino-6-(2-chloro-phenyl)-pyrazine-2-carboxylic acid (2-oxo-5-piperidin-1-yl-2,3-dihydro-pyrimidin-4-yl)-amide], the IC50 in assay [1] is above 25000 nM; at Pim3 kinase (read-out: PIM3 IC50), below 1 µM; at Pim2 kinase (read-out: PIM2 IC50), below 1 µM; at Pim1 kinase (read-out: PIM1 IC50) it was below 1 µM.
On to `Nc1ncc(-c2ccccc2OC(F)(F)F)nc1C(=O)Nc1[nH]c(=O)ncc1N1CCCCC1` [Example 596, 3-amino-6-(2-trifluoromethoxy-phenyl)-pyrazine-2-carboxylic acid (2-oxo-5-piperidin-1-yl-2,3-dihydro-pyrimidin-4-yl)-amide], for which the IC50 in assay [1] is above 25000 nM; at Pim3 kinase (read-out: PIM3 IC50), below 1 µM; on Pim2 kinase (read-out: PIM2 IC50), below 1 µM; on Pim1 kinase (read-out: PIM1 IC50) it was below 1 µM.

(Values after patent publication US20140249135A1, “PIM KINASE INHIBITORS AND METHODS OF THEIR USE” (NOVARTIS AG, priority 2007, published 2014).)
